This note sets out measurements from ChEMBL document CHEMBL3832081, “DailyMed|setid=caaf1b7f-eaab-4fb6-a955-b7d881038fef | METRONIDAZOLE - metronidazole gel|Sandoz Inc”.

The nature of the data set: Evaluation of pharmacokinetic parameters for metronidazole following topical administration of metronidazole gel USP, 1% to the face of 13 patients with moderate to severe rosacea. In kind it is ADME, organism-based. Set-up: dose 1 g, route topical. To be noted: human, in vivo, topical or ocular, dosed compound id 31, dosed compound name METRONIDAZOLE, gender male and female, regimen Once daily, study dosing duration 7 days, tissue Plasma.

Usually Cmax stands for the peak of the concentration-time curve. As a reminder, the AUC is the area under the concentration-time curve, a measure of exposure. In general, Tmax refers to the time at which the peak concentration occurs.

In the case of `Cc1ncc([N+](=O)[O-])n1CCO` [METRONIDAZOLE], the highest concentration (Cmax) (1 g) is 32 ng/mL. Further, the AUC (1 g, read-out: AUC(0-24)) came out at 595 ng·h/mL. Besides, for the setting “dose 1 g, route topical”, the Tmax lay within 6 to 10 h.
